# Experiments:
# Format in all cases: in vivo, human
# [1] = system: relapsing-remitting multiple sclerosis patient; experiment: Safety (TEAE, laboratory data), 24-week add-on study (Example 1); settings: 24 weeks
# Description: (§1) A placebo-controlled, double-blinded, randomized, 3-parallel group stratified study was conducted in relapsing-remitting multiple sclerosis patient who were concurrently on a stable dose of interferon beta. The dose level of interferon beta was defined as follows: • Low dose: AVONEX® (interferon beta-1a) 30 mcg once a week intramuscularly, or REBIF® (interferon beta-1a) 22 mcg three times per week subcutaneously. • High dose: REBIF® 44 mcg three times per week subcutaneously, or BETASERON® (interferon beta-1b) 0.25 mg every other day subcutaneously.
# (§2) Around 40 patients were treated in each treatment group (placebo: 41, 7 mg: 37, and 14 mg: 38). A third of patients in each group were treated with low dose interferon beta 1a. […] The mean age of the study population was 40.1 years. […] The base line Expanded Disability Status Scale (EDSS) score was similar between treatment groups (around 2.5).
# (§3) Safety was evaluated from Treatment Emergent Adverse Event (TEAE), physical examination and laboratory data (e.g. Liver Function Test, every 2-8 weeks), ECG and abdominal ultrasound (24-weeks). Brain MRI (magnetic resonance image) activity, including T1-gadolinium (T1-Gd) with central reading were recorded every 8-week. Relapses were recorded and EDSS was performed at 24-week.
# [2] = system: relapsing-remitting multiple sclerosis patient; experiment: Safety (TEAE, laboratory data), 48-week double-blind treatment period (Example 2); settings: 48 weeks
# Description: as §1
# (§4) Design/Methods: 86 of the 116 patients that were randomized to treatment (placebo: 41; 7 mg: 37; 14 mg: 38) for the first 6-months in Example 1 completed this 6-month period and accepted to continue medication for an additional 6-month period (placebo: 31, 7 mg: 28, 14 mg: 27). Safety was evaluated from TEAE, physical exam (every 6 weeks), laboratory data (every 6 weeks), ECG (at the close-out visit), pancreatic ultrasound (at the close-out visit) and brain MRI (at the close-out visit). Relapses were recorded and EDSS was performed every 6-weeks. Annualized relapse rates (ARR) were estimated by a Poisson model adjusted to IFN strata and to geographical regions. The following results report the entire 48-week double-blind treatment period.
# [3] = system: relapsing-remitting multiple sclerosis patient; experiment: MS relapse, 48-week double-blind treatment period (Example 2)
# Description: as §1, §4
# [4] = system: relapsing-remitting multiple sclerosis patient; experiment: Brain MRI Gd-enhancing T1-lesions, 48-week double-blind treatment period (Example 2); settings: for Patients with >=1 Gd-enhancing T1-lesions post-baseline, No (% of patients; free of T1-Gd lesions): 48 weeks, ITT; for Relative risk reduction in the number of T1-Gd lesions compared with placebo added to IFN-beta / Relative reduction of T1-Gd lesion volume compared to placebo: 48 week; for Relative risk reduction in the number of T1-Gd lesions compared with placebo added to IFN-beta: adjusted
# Description: as §1, §4
# [5] = system: relapsing-remitting multiple sclerosis patient; experiment: MS relapse, 24-week add-on study (Example 1); settings: 24 weeks, ITT
# Description: as §1, §2, §3
# [6] = system: relapsing-remitting multiple sclerosis patient; experiment: Brain MRI Gd-enhancing T1-lesions, 24-week add-on study (Example 1); settings: for Patients with >=1 Gd-enhancing T1-lesions post-baseline, No (% of patients; free of T1-Gd lesions): 24 weeks, ITT; for Relative risk reduction in the number of T1-Gd lesions compared with placebo added to IFN-beta / Relative reduction of T1-Gd lesion volume compared to placebo: 24 week; for Relative risk reduction in the number of T1-Gd lesions compared with placebo added to IFN-beta: adjusted
# Description: as §1, §2, §3
# [7] = 7 mg teriflunomide added to stable-dose interferon beta
# [8] = 14 mg teriflunomide added to stable-dose interferon beta
# [9] = 7 mg teriflunomide added to stable-dose IFN-beta
# [10] = 14 mg teriflunomide added to stable-dose IFN-beta
# [11] = 14 mg teriflunomide in addition to stable-dose IFN-beta, p<0.0001
smiles,measurement,setting,value
"C/C(O)=C(\C#N)C(=O)Nc1ccc(C(F)(F)F)cc1 [teriflunomide, (Z)-2-cyano-3-hydroxy-but-2-enoic acid-(4′-trifluoromethylphenyl)-amide]",Proportion of patients with ALT/SGPT greater than 3xULN,[1]; [7],0%
same,Proportion of patients with TEAE due to increased ALT/SGPT,[1]; [7],13.5%
same,"Proportion of patients with TEAE potentially related to immunosuppression (white blood cell counts, infections and infestations)",[1]; [7],49%
same,"Upper respiratory tract infections (nasopharyngitis, sinusitis), proportion of patients",[1]; [7],10.8%
same,Proportion of patients with ALT/SGPT greater than 3xULN,[1]; [8],5.3%
same,Proportion of patients with TEAE due to increased ALT/SGPT,[1]; [8],28.9%
same,"Proportion of patients with TEAE potentially related to immunosuppression (white blood cell counts, infections and infestations)",[1]; [8],50%
same,"Upper respiratory tract infections (nasopharyngitis, sinusitis), proportion of patients",[1]; [8],23.7%
same,Concomitant bilirubin increase (with ALT/SGPT increase),"[1]; all groups, 7 mg or 14 mg teriflunomide added to stable-dose interferon beta",no case
same,Patients with ALT increased above 3ULN without concomitant increase in bilirubin (number),[2]; [9],1
same,TEAE all gastrointestinal disorders,[2]; [9],18.9%
same,TEAE all type of headaches,[2]; [9],5.4%
same,TEAE upper respiratory tract infections as a whole,[2]; [9],16.2%
same,TEAEs that led to treatment discontinuation (number),[2]; [9],3
same,White blood cell counts decreases (number),[2]; [9],3
same,Patients with ALT increased above 3ULN without concomitant increase in bilirubin (number),[2]; [10],3
same,TEAE all gastrointestinal disorders,[2]; [10],31.6%
same,TEAE all type of headaches,[2]; [10],18.4%
same,TEAE upper respiratory tract infections as a whole,[2]; [10],23.7%
same,TEAEs that led to treatment discontinuation (number),[2]; [10],3
same,White blood cell counts decreases (number),[2]; [10],4
same,Reduction in annualized relapse rate compared to IFN-beta,"[3]; 7 mg teriflunomide in addition to stable-dose IFN-beta, p=0.43",32.6%
same,Reduction in annualized relapse rate compared to IFN-beta,"[3]; 14 mg teriflunomide in addition to stable-dose IFN-beta, p=0.11",57.9%
same,"Patients with >=1 Gd-enhancing T1-lesions post-baseline, No (% of patients; free of T1-Gd lesions)",[4]; 7 mg teri + IFN-β,69.4%
same,Relative risk reduction in the number of T1-Gd lesions compared with placebo added to IFN-beta,"[4]; 7 mg teriflunomide in addition to stable-dose IFN-beta, p=0.0005",84.6%
same,Relative reduction of T1-Gd lesion volume compared to placebo,"[4]; 7 mg teriflunomide in addition to stable-dose IFN-beta, p=0.1104",72.1%
same,"Patients with >=1 Gd-enhancing T1-lesions post-baseline, No (% of patients; free of T1-Gd lesions)",[4]; 14 mg teri + IFN-β,76.3%
same,Relative risk reduction in the number of T1-Gd lesions compared with placebo added to IFN-beta,[4]; [11],82.8%
same,Relative reduction of T1-Gd lesion volume compared to placebo,"[4]; 14 mg teriflunomide in addition to stable-dose IFN-beta, p=0.0154",70.6%
same,Total number of relapses,"[5]; 7 mg teri + IFN-β, 16.4 patient-years followed",5
same,Total number of relapses,"[5]; 14 mg teri + IFN-β, 17.3 patient-years followed",2
same,"Patients with >=1 Gd-enhancing T1-lesions post-baseline, No (% of patients; free of T1-Gd lesions)",[6]; 7 mg teri + IFN-β,69.4%
same,Relative risk reduction in the number of T1-Gd lesions compared with placebo added to IFN-beta,"[6]; 7 mg teriflunomide in addition to stable-dose IFN-beta, p=0.0009",82.6%
same,Relative reduction of T1-Gd lesion volume compared to placebo,"[6]; 7 mg teriflunomide in addition to stable-dose IFN-beta, p=0.1931",67.6%
same,"Patients with >=1 Gd-enhancing T1-lesions post-baseline, No (% of patients; free of T1-Gd lesions)",[6]; 14 mg teri + IFN-β,81.6%
same,Relative risk reduction in the number of T1-Gd lesions compared with placebo added to IFN-beta,[6]; [11],84.4%
same,Relative reduction of T1-Gd lesion volume compared to placebo,"[6]; 14 mg teriflunomide in addition to stable-dose IFN-beta, p=0.0072",64.7%

# From patent publication US20120107277A1, “USE OF THE COMBINATION OF TERIFLUNOMIDE AND INTERFERON BETA FOR TREATING MULTIPLE SCLEROSIS” (SANOFI-AVENTIS U.S LLC, priority 2009, published 2012)
